# In patent US6087395A, “Isocarbacyclin derivatives as apoptosis inhibitors” (Japan Science and Technology Corporation, priority 1997, dated 2000):
# Tests used:
# [1] = rhesus monkey, in vivo
# [2] = tested on: hippocampal CA1 pyramidal neurons; test: Hippocampal CA1 pyramidal neuron apoptosis induced by transient forebrain ischemia, in vivo; set-up: species or system mongolian gerbil; details: continuous infusion into left lateral ventricle for 7 days
# Protocol: Effect of 15R-TIC on hippocampal CA1 pyramidal neurons apoptosis induced by ischemic damage in mongolian gerbils was tested in vivo.
# To examine whether 15R-TIC can prevent nouronal death in vivo, using an osmotic mini-pomp, 15R-TIC solution was continuously infused for 7 days (started 2 days before the transient ischemia and ended at 5 days) into the left lateral ventricle of gerbils that had been subjected to a transient forebrain ischemia for 3 minutes. Survival number of CA1 pyramidal neurons was assessed by counting neurons with cell bodies larger than 10 μm in the Nissl-staining sections.
# hippocampal neurons = test: Hippocampal neuron apoptosis induced by high-oxygen (50% oxygen) incubation; type: cell-based, rat (Wistar strain, fetal); details: 48 hours; for survival rate of neurons at 3000 nM (FIG. 2): control = neurons in 9% oxygen; for survival rate of hippocampal neurons incubated in 50% oxygen (FIG. 1): 5 μM (bFGF 50 nM), neurons in 9% oxygen as control; for IC50: Rattus norvegicus, Hippocampal neuron, read-out: IC50 (inhibition of hippocampal neural apoptosis); for dose-dependent effect on hippocampal neural apoptosis / neuroprotection (FIG. 2): range of concentrations tested, n=4
# Protocol: Effect of 15R-TIC and Deoxy-TIC on hippocampal neuron apoptosis induced by a high-oxygen incubation was tested.
# Isocarbacyclin was a pure sample supplied from Teijin Co., Ltd. 15S-TIC was prepared in accordance with the method disclosed in Example 3 of JP-A 245,498/96 by using 15S-16-m-tolyl-17,18,19,20-tetra-nor-carbacyclin which is also disclosed in Example 2 of the same Publication JP-A 245,498/96. The 15R-TIC was prepared by the same method as disclosed in Example 3 of the Publication JP-A 245,498/96. bFGF was the commercially available one.
# Hippocampal region was cut out from the fetal rat brain which was aseptically isolated from a pregnant rat (Wistar strain) of […] and the hippocampal region was dispersed into neurons by shaking culture for 30 minutes in a PBS (Ca- and Mg-free) containing DL-cysteine (0.2 mg/ml), bovine serum albumin (0.2 mg/ml), glucose (5 mg/ml), DNase I (0.01%) and papain (9 units/ml). After that, each neutron was planted at the density of 5×10^5 cells/cm^2 on a 24-well plate (coated with polyethyleneimine) filled with a DME/F-12 medium (containing 5% equine serum and 5% fetal bovine serums and incubated for two days in a 5% carbon dioxide gas incubator (9% oxygen). After that, the culture medium was substituted with an DME/F-12 medium (containing 5 μg/ml of transferrin, 5 μg/ml of insulin and 5 nM progasterone) wherefrom serum was removed. Then each sample to be tested was added to the medium, and after 30 minutes, transfered into 50% oxygen. After incubating in 50% oxygen for 48 hours, the survival rate of the neurons was measured. The neurons in 9% oxygen were also added to each sample and the survival rate was measured.
# Which regard to the survival rate, the neurons were immobilized by 4% paraformaldehyde, stained with anti-MAP2 antibody and colored by DAB, and the cells positive to MAP2 were counted from the 200-fold enlarged picture whereupon the survival rate was calculated.
SMILES,pass through blood-brain-barrier / transfer into brain ([1]; iv),survival rate of hippocampal neurons incubated in 50% oxygen (FIG. 1) (hippocampal neurons),dose-dependent effect on hippocampal neural apoptosis / neuroprotection (FIG. 2) (hippocampal neurons),further results
COC(=O)CCCCC1=C[C@H]2C[C@@H](O)[C@H](/C=C/[C@H](O)Cc3cccc(C)c3)[C@H]2C1 [15R-TIC methyl ester],efficiently transfererd into the brain,–,–,conversion in the brain (prodrug behaviour) [1]: is converted to 15R-TIC in the brain
"Cc1cccc(C[C@@H](O)/C=C/[C@@H]2[C@H]3CC(CCCCC(=O)O)=C[C@H]3C[C@H]2O)c1 [15R-TIC, 15R-16-(m-tolyl)-17,18,19,20-tetranorisocarbacyclin]",–,an increase in the survival rate of neurons was observed to the same or even better extent as compared with the case of bFGF,dose-dependent inhibitory effect on neural apoptosis,"loss of CA1 pyramidal neurons induced by forebrain ischemia [2]: blocked the loss of CA1 pyramidal neurons induced by forebrain ischemia; number of CA1 pyramidal neurons ([2]; in a 20 μm thick section, n=4, 3 minutes transient forebrain ischemia, ischemia-free control 1061±220, vehicle 142±28): 984±299; survival rate of neurons at 3000 nM (FIG. 2) (hippocampal neurons): equivalent to the control; IC50 (hippocampal neurons): ~300 nM"
"Cc1cccc(C[C@H](O)/C=C/[C@@H]2[C@H]3CC(CCCCC(=O)O)=C[C@H]3C[C@H]2O)c1 [15S-TIC, reference compound]",–,greatly reduced by apoptosis induced by a high-oxygen condition as same as under the control condition,did not have any effect on neuroprotection in the range of concentrations tested,–
"Cc1cccc(CC/C=C/[C@@H]2[C@H]3CC(CCCCC(=O)O)=C[C@H]3C[C@H]2O)c1 [Deoxy-TIC, 15-Deoxy-16-(m-tolyl)-17,18,19,20-tetranorisocarbacyclin]",–,an increase in the survival rate of neurons was observed to the same or even better extent as compared with the case of bFGF,dose-dependent inhibitory effect on neural apoptosis,survival rate of neurons at 3000 nM (FIG. 2) (hippocampal neurons): equivalent to the control; IC50 (hippocampal neurons): ~30 nM
COC(=O)CCCCC1=C[C@H]2C[C@@H](O)[C@H](/C=C/[C@H](O)Cc3cccc([11CH3])c3)[C@H]2C1 [RTA],equivalent pass through blood-brain-barrier,–,–,conversion in the brain (prodrug behaviour) [1]: could serve as a prodrug for 15R-TIC; retention in the brain ([1]; iv): retained in the brain further than RTC
Cc1cccc(C[C@@H](O)/C=C/[C@@H]2[C@H]3CC(CCCCC(=O)O[11CH3])=C[C@H]3C[C@H]2O)c1 [RTC],equivalent pass through blood-brain-barrier,–,–,–
CCCCC[C@H](O)/C=C/[C@@H]1[C@H]2CC(CCCCC(=O)O)=C[C@H]2C[C@H]1O [isocarbacyclin],–,greatly reduced by apoptosis induced by a high-oxygen condition as same as under the control condition,did not have any effect on neuroprotection in the range of concentrations tested,–
